Test system: renal cell carcinoma tissue, Patient Sample GS-640 (kidney tissue)
Assay: tumor tissue fragments in three-dimensional gel matrix: cell migration/invasion away from the fragment under chemotherapy
Type: cell-based, human
Conditions: 5 days treatment; for number of invading cells: compared with control sample at Day 5; for response of tumor sample to the drug (behavior of cells growing and invading away from the solid tumor fragment): patient renal cell carcinoma fragments in gel matrix, 37 degree Celsius, 5% CO2, compared with untreated control
From the text: FIGS. 1-8 are photographic and photomicrographic images which show, by way of example, use of the means and methods of the present invention with respect to a tissue sample removed from a patient. With respect to FIGS. 1-8, Patient Sample GS-640, comprising kidney tissue, was removed from the patient by a surgeon during surgery.
Tissue analysis and screening in accordance with the invention were requested by the surgeon, and proper consent was obtained from the patient prior to surgical removal of a sample quantity of tissue from the RHS Kidney. The patient was diagnosed with renal cell carcinoma. A tissue sample of approximately 1 gram in quantity was removed from the patient during surgery, and was placed into a 25 ml sample jar, and immersed in sterile saline. The tumor tissue was kept at 4 degrees centigrade until processed for the screening of therapeutic compounds in accordance with the means and methods of the invention. All procedures were performed under sterile conditions in a bio-safety laminar flow hood.
FIG. 1 is a photographic image showing the mechanical division of the sample into portions to be tested. The sample has been prepared by dissecting away any non viable tissue and blood prior to mincing into 1-2 mm pieces using sterile disposable scalpels.
FIG. 2 is a photographic image showing tumor sample portions which have been placed into each well of a 48 well plate, and been submersed in a gel matrix mixture according to the invention. After insertion of the portions, the mixture was allowed to form into a gel at room temperature for approximately 30 minutes. Once the gel formed around the fully immersed tumor fragments, nutrient rich media was added as a liquid overlay that permeated the entire gel and tumor fragment.
Each different chemotherapy and or dose of chemotherapy was added to a set of 6 wells out of the 48-well plate. A total of 7 different chemotherapies were assessed in this plate. One set of six wells were not treated with drug and thus acted as ‘control conditions’ for tumor fragment growth and invasion. Each of the eight vertical lanes containing six separate wells was marked with a symbol for each chemotherapy/dose used and noted correspondingly on data collection sheets. […] The plates were then placed in a conventional 37 degree Celsius incubator at 5% CO2.
This image is thus representative of all wells at Day 0 with or without chemotherapeutics. Images were made with a 400× magnification phase contrast micrograph using ZEISS camera specs.
FIG. 4 is a photomicrographic image which showing a patient control sample (no treatment) after 3 days incubation @37° C. and 5% CO2. Noteworthy is the migration of cells away from the solid tumor mass in a halo around the tumour fragment.
Noteworthy is the halo of cells and increased cell density as compared with the results shown at Day 3 of the test. The lines on the images have been drawn to show the distance measurements within which approximately 95% of the migrating cells have migrated away from the margins of the tissue sample.

Row | Structure (SMILES) | migratory distance of cells | number of invading cells | response of tumor sample to the drug (behavior of cells growing and invading away from the solid tumor fragment)
1 | CC(=O)O[C@@]12CO[C@@H]1C[C@H](O)[C@@]1(C)C(=O)[C@H](O)C3=C(C)[C@@H](OC(=O)[C@H](O)[C@@H](NC(=O)OC(C)(C)C)c4ccccc4)C[C@@](O)([C@@H](OC(=O)c4ccccc4)[C@H]21)C3(C)C [Docetaxol, Docetaxel] | longer migratory distance than treatment with Taxol | fewer number of invading cells than the control | moderate response
2 | CC(=O)O[C@H]1C(=O)[C@@]2(C)[C@H]([C@H](OC(=O)c3ccccc3)[C@]3(O)C[C@H](OC(=O)[C@H](O)[C@@H](NC(=O)c4ccccc4)c4ccccc4)C(C)=C1C3(C)C)[C@]1(OC(C)=O)CO[C@@H]1C[C@@H]2O [Taxol, Paclitaxel] | – | – | a drop in both the distance and the number of cells that have grown and invaded away from the solid tumor fragment
3 | N.N.[Cl][Pt][Cl] [Cisplatin] | – | identical in appearance and cell numbers to the control sample | failed chemotherapy

From patent publication US7977041B2, “Methods and kits for testing the efficacy of therapeutic compounds and other therapies in a three-dimensional matrix with respect to tumorous cells and tissue” (priority 2006, dated 2011)
